Data published in paper PMC9606955, “In Vitro Activity of Essential Oils Distilled from Colombian Plants against Candida auris and Other Candida Species with Different Antifungal Susceptibility Profiles” (Molecules, 2022).
≈ marks a conversion by molar mass, not a printed value.

Experiments:
Experiment in all cases: MIC, CLSI M27 broth microdilution
[1] = tested on: C. glabrata LMDM 34; assay type: cell-based, Candida glabrata
Description: (§1) The fungal strains used in this study were C. albicans ATCC 10231, C. albicans ATCC 64550, C. parapsilosis ATCC 22019, C. tropicalis ATCC 750, C. tropicalis ATCC 200956 (resistant to azoles and AMB), C. glabrata LMDM 34 (resistant to echinocandins), C. metapsilosis MUM 15.12, C. orthopsilosis MUM 17.13, C. lusitaniae MUM 17.08, C. krusei ATCC 6258 (Issatchenkia orientalis ATCC 6258), and C. auris CDC B11903. Additionally, nine clinical isolates were included: C. parapsilosis Synlab 406 (FLC-resistant) and eight C. auris isolates identified by MALDI-TOF MS (Bruker Daltonics, Bremen, Germany) according to Zhao et al.. These yeasts were cultured on Sabouraud Dextrose Agar (SDA; Sigma-Aldrich, St. Louis, MO, USA) for 24 h at 35 °C.
(§2) Antifungal susceptibility testing was performed according to Clinical and Laboratory Standards Institute M27, 4th Edition (CLSI standard M27, 4th Edition). Some modifications were applied for evaluation of the antifungal activity of EOs and terpenes. Initially, a screening was carried out to determine the antifungal activity of the EOs and of commercial terpenes. Stock concentrations of EOs and terpenes were prepared at 512 µg/mL and an inoculum of 2.5 × 10^3 CFU/mL of each yeast was prepared in RPMI 1640-MOPS (Sigma- Aldrich St. Louis, MO, USA). Thereafter, 100 µL of each stock solution of EOs or terpenes was dispensed in 96-well microdilution plates (Corning®, Costar®, NY, USA) and 100 µL of each yeast inoculum was added. […] Microdilution plates were incubated at 35 °C and, after 24 h, the presence or absence of growth was visually checked using a manual mirror viewer and then compared with the amount of growth in the control (no EO or terpene). Compounds able to inhibit yeast growth were tested to determine the minimal inhibitory concentration (MIC) as follows: 100 µL of 10 two-fold dilutions of the EOs or commercial terpenes was dispensed in 96-well microplates and the yeast inoculum was added. Final concentrations of the EOs or terpenes ranged from 0.5 µg/mL to 256 µg/mL. Microdilution plates were incubated at 35 °C for 24 h. MICs were visually determined at the lowest concentration that produced visual inhibition compared to the growth control. The assays were performed at least three times in duplicate on different days. The results were expressed as geometric means (GM) and ranges. As an antifungal susceptibility testing control, the activity of ITC and AMB against the reference strains C. krusei ATCC 6258 and C. parapsilosis ATCC 22019 was evaluated in all experiments following the CLSI standard M27, 4th Edition. It was mandatory that the MIC values remained in the accepted range.

[2] = tested on: C. parapsilosis ATCC 22019; assay type: cell-based, Candida parapsilosis; settings: antifungal drugs
Description: as §1, §2

[3] = tested on: C. parapsilosis Synlab 406; assay type: cell-based, Candida parapsilosis; settings: C. parapsilosis Synlab 406, antifungal drugs
Description: as §1, §2

[4] = tested on: C. auris Ca 1; assay type: cell-based, Candida auris; settings: C. auris Ca 1, antifungal drugs
Description: as §1, §2

[5] = tested on: C. auris CDC B11903; assay type: cell-based, Candida auris; settings: C. auris CDCB11903, antifungal drugs
Description: as §1, §2

[6] = tested on: C. auris Ca 45; assay type: cell-based, Candida auris; settings: C. auris Ca 45, antifungal drugs
Description: as §1, §2

[7] = tested on: C. auris Ca 10; assay type: cell-based, Candida auris; settings: antifungal drugs
Description: as §1, §2

[8] = tested on: C. auris Ca 17; assay type: cell-based, Candida auris; settings: C. auris Ca 17, antifungal drugs
Description: as §1, §2

[9] = tested on: C. auris Ca 41; assay type: cell-based, Candida auris; settings: C. auris Ca 41, antifungal drugs
Description: as §1, §2

[10] = tested on: C. auris Ca 46; assay type: cell-based, Candida auris; settings: C. auris Ca 46, antifungal drugs
Description: as §1, §2

[11] = tested on: C. auris Ca 9; assay type: cell-based, Candida auris; settings: C. auris Ca 9, antifungal drugs
Description: as §1, §2

[12] = tested on: C. auris Ca 32; assay type: cell-based, Candida auris; settings: C. auris Ca 32, antifungal drugs
Description: as §1, §2

[13] = tested on: C. lusitaniae MUM 17.08; assay type: cell-based, Candida lusitaniae; settings: C. lusitaniae MUM 17.08, antifungal drugs
Description: as §1, §2

[14] = tested on: C. metapsilosis MUM 15.12; assay type: cell-based, Candida metapsilosis; settings: C. metapsilosis MUM 15.12, antifungal drugs
Description: as §1, §2

[15] = tested on: C. tropicalis ATCC 750; assay type: cell-based, Candida tropicalis; settings: antifungal drugs
Description: as §1, §2

[16] = tested on: C. tropicalis ATCC 200956; assay type: cell-based, Candida tropicalis; settings: C. tropicalis ATCC 200956, antifungal drugs
Description: as §1, §2

[17] = tested on: C. albicans ATCC 64550; assay type: cell-based, Candida albicans; settings: antifungal drugs
Description: as §1, §2

[18] = tested on: C. albicans ATCC 10231; assay type: cell-based, Candida albicans; settings: antifungal drugs
Description: as §1, §2

[19] = tested on: C. krusei ATCC 6258; assay type: cell-based, Candida krusei; settings: C. krusei ATCC 6258, antifungal drugs
Description: as §1, §2

[20] = tested on: C. orthopsilosis MUM 17.13; assay type: cell-based, Candida orthopsilosis; settings: C. orthopsilosis MUM 17.13, antifungal drugs
Description: as §1, §2

SMILES: CC[C@H](C)C[C@H](C)CCCCCCCCC(=O)N[C@H]1C[C@@H](O)[C@@H](NCCN)NC(=O)[C@@H]2[C@@H](O)CCN2C(=O)[C@H]([C@H](O)CCN)NC(=O)[C@H]([C@H](O)[C@@H](O)c2ccc(O)cc2)NC(=O)[C@@H]2C[C@@H](O)CN2C(=O)[C@H]([C@@H](C)O)NC1=O [CSF, caspofungin]
- MIC ([1]; Nakaseomyces glabratus, LMDM34, geometric mean, antifungal drugs): 8 µg/mL (≈ 7.32 µM)
- MIC Range ([1]; antifungal drugs): 8 µg/mL (≈ 7.32 µM)
- susceptibility category ([1]; resistance confirmed): resistance
- MIC ([2]; Lodderomyces parapsilosis, ATCC22019, geometric mean): 1 µg/mL (≈ 0.915 µM)
- MIC Range [2]: 1 µg/mL (≈ 0.915 µM)
- MIC Range [3]: 2 µg/mL (≈ 1.83 µM)
- MIC ([3]; Lodderomyces parapsilosis, SYNLAB406, geometric mean, read-out: MIC GM): 2 µg/mL (≈ 1.83 µM)
- MIC Range [4]: 0.5 µg/mL (≈ 0.457 µM)
- MIC ([4]; Candidozyma auris, CA1, geometric mean, read-out: MIC GM): 0.5 µg/mL (≈ 0.457 µM)
- MIC Range [5]: 0.5 µg/mL (≈ 0.457 µM)
- MIC ([5]; Candidozyma auris, geometric mean, read-out: MIC GM): 0.5 µg/mL (≈ 0.457 µM)
- MIC Range [6]: 0.5 µg/mL (≈ 0.457 µM)
- MIC ([6]; Candidozyma auris, CA45, geometric mean, read-out: MIC GM): 0.5 µg/mL (≈ 0.457 µM)
- MIC ([7]; Candidozyma auris, CA10, geometric mean): 0.7 µg/mL (≈ 0.64 µM)
- MIC Range [7]: 0.5 to 1 µg/mL
- MIC Range [8]: 0.5 µg/mL (≈ 0.457 µM)
- MIC ([8]; Candidozyma auris, CA17, geometric mean, read-out: MIC GM): 0.5 µg/mL (≈ 0.457 µM)
- MIC Range [9]: 0.5 µg/mL (≈ 0.457 µM)
- MIC ([9]; Candidozyma auris, CA41, geometric mean, read-out: MIC GM): 0.5 µg/mL (≈ 0.457 µM)
- MIC Range [10]: 0.5 µg/mL (≈ 0.457 µM)
- MIC ([10]; Candidozyma auris, CA46, geometric mean, read-out: MIC GM): 0.5 µg/mL (≈ 0.457 µM)
- MIC Range [11]: 0.5 µg/mL (≈ 0.457 µM)
- MIC ([11]; Candidozyma auris, CA9, geometric mean, read-out: MIC GM): 0.5 µg/mL (≈ 0.457 µM)
- MIC Range [12]: 0.5 µg/mL (≈ 0.457 µM)
- MIC ([12]; Candidozyma auris, CA32, geometric mean, read-out: MIC GM): 0.5 µg/mL (≈ 0.457 µM)
- MIC Range [13]: 1 µg/mL (≈ 0.915 µM)
- MIC ([13]; Clavispora lusitaniae, MUM17.08, geometric mean, read-out: MIC GM): 1 µg/mL (≈ 0.915 µM)
- MIC Range [14]: 1 µg/mL (≈ 0.915 µM)
- MIC ([14]; Lodderomyces metapsilosis, MUM15.12, geometric mean, read-out: MIC GM): 1 µg/mL (≈ 0.915 µM)
- MIC ([15]; Candida tropicalis, ATCC750, geometric mean): 0.35 µg/mL (≈ 0.32 µM)
- MIC Range [15]: 0.25 to 0.5 µg/mL
- MIC Range [16]: 0.5 µg/mL (≈ 0.457 µM)
- MIC ([16]; Candida tropicalis, ATCC200956, geometric mean, read-out: MIC GM): 0.5 µg/mL (≈ 0.457 µM)
- MIC ([17]; Candida albicans, ATCC64550, geometric mean): 0.35 µg/mL (≈ 0.32 µM)
- MIC Range [17]: 0.25 to 0.5 µg/mL
- MIC ([18]; Candida albicans, ATCC10231, geometric mean): 0.18 µg/mL (≈ 0.165 µM)
- MIC Range [18]: 0.12 to 0.25 µg/mL
- MIC Range [19]: 1 µg/mL (≈ 0.915 µM)
- MIC ([19]; Pichia kudriavzevii, ATCC6258, geometric mean, read-out: MIC GM): 1 µg/mL (≈ 0.915 µM)
- MIC Range [20]: 1 µg/mL (≈ 0.915 µM)
- MIC ([20]; Lodderomyces orthopsilosis, MUM17.13, geometric mean, read-out: MIC GM): 1 µg/mL (≈ 0.915 µM)
